# Experimental data as given in ChEMBL document CHEMBL3232868, “Programmable DNA-binding small molecules” (Bioorg Med Chem, 2013).
# pIC50, pKd: −log10 of the molar value.
# How the values were obtained:
# [1] = Binding affinity to 5'-TGTTAT-3' DNA (unknown origin)
# [2] = system: Human papillomavirus type 16; experiment: Antiviral activity against HPV16 assessed as inhibition of viral replication; assay type: functional, organism-based; details: Human papillomavirus 16
# [3] = Binding affinity to DNA HRE binding site (unknown origin) by DNase 1 footprint titrations method
# Homo sapiens = organism: Homo sapiens; experiment: Binding affinity to DNA HRE binding site (unknown origin) assessed as inhibition of HIF-1alpha/ARNT heterodimer binding
# [4] = Binding affinity to 5'-WGWWCW-3' DNA (unknown origin)
# [5] = Binding affinity to rat TGF-beta1 promoter AP1 binding site by gel mobility shift and SPR method
smiles,measurement,setting,value
CN(CCCN)CCCNC(=O)CCNC(=O)c1cc(NC(=O)c2cc(NC(=O)c3cc(NC(=O)c4cc(NC(=O)CCCNC(=O)c5cc(NC(=O)c6cc(NC(=O)c7cc(NC(=O)c8nccn8C)cn7C)cn6C)cn5C)cn4C)cn3C)cn2C)cn1C,pKd,[1],8.96
Cn1cc(NC(=O)c2cc(NC(=O)c3cc(NC=O)cn3C)cn2C)cc1C(=O)NCCC(=N)N [STALLIMYCIN],pIC50,[2],4.48
CN(CCCNC(=O)c1cc(NC(=O)c2cc(NC(=O)c3nc(NC(=O)c4cc(NC(=O)[C@H](N)CCNC(=O)c5nc(NC(=O)c6cc(NC(=O)c7cc(NC(=O)c8sccc8Cl)cn7C)cn6C)cn5C)cn4C)cn3C)cn2C)cn1C)CCCNC(=S)Nc1ccc(-c2c3ccc(=O)cc-3oc3cc(O)ccc23)c(C(=O)O)c1,Ka,[3],6.3 ×10⁹ /M
same,INH,Homo sapiens,0.25 nM
CN(CCCNC(=O)c1cccc(C(=O)O)c1)CCCNC(=O)c1cc(NC(=O)c2cc(NC(=O)c3cc(NC(=O)c4nc(NC(=O)C[C@@H](CNC(=O)c5cc(NC(=O)c6cc(NC(=O)c7cc(NC(=O)c8nccn8C)cn7C)cn6C)cn5C)NC(=O)c5ccccn5)cn4C)cn3C)cn2C)cn1C,pIC50,[4],7.68
CN(CCCNC(=O)c1cccc(C(=O)O)c1)CCCNC(=O)c1cc(NC(=O)c2cc(NC(=O)c3cc(NC(=O)c4nc(NC(=O)C[C@@H](CNC(=O)c5cc(NC(=O)c6cc(NC(=O)c7cc(NC(=O)c8nccn8C)cn7C)cn6C)cn5C)NC(=O)c5ccc([N+](=O)[O-])cc5)cn4C)cn3C)cn2C)cn1C,pIC50,[4],8.00
CC(=O)Nc1cc(C(=O)Nc2cc(C(=O)NCCC(=O)Nc3cc(C(=O)Nc4cn(C)c(C(=O)Nc5cc(C(=O)NCCCC(=O)Nc6cc(C(=O)Nc7cc(C(=O)Nc8cc(C(=O)NCCC(=O)Nc9cn(C)c(C(=O)Nc%10cc(C(=O)NCCC(=O)NCCCN(C)C)n(C)c%10)n9)n(C)c8)n(C)c7)n(C)c6)n(C)c5)n4)n(C)c3)n(C)c2)n(C)c1,pKd,[5],8.84
CN(CCCNC(=O)c1cccc(C(=O)O)c1)CCCNC(=O)c1cc(NC(=O)c2cc(NC(=O)c3cc(NC(=O)c4nc(NC(=O)C[C@@H](CNC(=O)c5cc(NC(=O)c6cc(NC(=O)c7cc(NC(=O)c8nccn8C)cn7C)cn6C)cn5C)NC(=O)c5ccc(-c6ccccc6)cc5)cn4C)cn3C)cn2C)cn1C,pIC50,[4],7.89
